Reference: patent US5443967A, “DNA encoding the cancer associated SCM recognition factor” (priority 1993, dated 1995)

What was measured:
[1] = system: elastase; assay: Casein-resorufin protease assay: inhibition of elastase by α-1-PI; type: biochemical; conditions: 3.2 μg Elastase + 6.6 μg α-1-PI
Protocol: (§1) A protease activity using casein-resorufin as a protease substrate was performed to determine the effect of SCM factor on inhibition of the serine proteases trypsin, elastase, and cathepsin G by the serine protease inhibitor α-1-PI. The protocol provided by the manufacturer, Boehringer-Mannheim Biochemica, was followed to assay protease activity. […] However, when SCM factor was added before α-1-PI or simultaneously in a mixture with α-1-PI, it prevented the inhibition of trypsin by α-1-PI. The degree of this effect depended on the quantity of SCM factor added. […] The active portion of the molecule that prevents inhibition of the proteolytic enzymes by α- 1-PI resides within the first seven amino-terminal amino acid residues of the SCM factor. This portion of the molecule is designated "fraction 6" or F6. The effectiveness of equimolar amounts of the peptide F6, as compared to the entire SCM factor molecule (Table 20) in preventing the inhibition of elastase by α-1-PI is shown in Table 22.

[2] = system: trypsin; assay: Casein-resorufin protease assay: inhibition of trypsin by α-1-PI; type: biochemical; conditions: 3 μg Trypsin + 6.6 μg α-1-PI; 300 μL
Protocol: as §1

[3] = system: SCM-responding lymphocytes; assay: SCM-response modifying effect of α-1-PI (SCM test after preincubation and washing); type: cell-based, human; conditions: 2.5 hr α-1-PI + 3X Wash
Protocol: SCM-responding lymphocytes were isolated from blood samples of a patient with malignant melanoma and from a normal, healthy donor. Half of the lymphocyte suspension from each sample was incubated with 30 nanomoles of α-1-PI per 6×10^6 cells for 2.5 hours at 37° C.; the other half was retained as an untreated control. The cells were then washed three times with PBS. Aliquots from both the untreated controls and the α-1-PI-treated samples were challenged for 40 min with phytohemagglutinin (PHA) or SCM factor. […] The RRSCM was 1.74 in the absence of incubation and 1.68 after incubation.

[4] = target: T1, cathepsin G (Homo sapiens, UniProt P08311); assay: Casein-resorufin protease assay: inhibition of cathepsin G by α-1-PI; type: biochemical; conditions: 1 μg Cathepsin G + 6.6 μg α-1-PI; 300 μL
T1 sequence (P08311 21-244 limits assumed): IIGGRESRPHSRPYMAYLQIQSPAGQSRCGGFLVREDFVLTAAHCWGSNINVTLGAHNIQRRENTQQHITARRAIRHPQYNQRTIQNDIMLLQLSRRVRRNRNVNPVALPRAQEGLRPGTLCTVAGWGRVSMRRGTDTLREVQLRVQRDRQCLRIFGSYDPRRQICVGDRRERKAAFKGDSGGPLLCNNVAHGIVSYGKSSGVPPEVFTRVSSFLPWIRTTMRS
Protocol: as §1

Substance: α-1-PI: glycoprotein serine protease inhibitor, 55,000 daltons, single chain of 394 residues
- Trypsin Activity in Casein-Resorufin Assay as % of Untreated Control Enzyme ([1]; 300 μL (Table 20)): 3.5%
- Elastase Activity in Casein-Resorufin Assay as % of Untreated Control Enzyme ([1]; 300 μL (Table 22)): 3.4%
- Trypsin Activity in Casein-Resorufin Assay as % of Untreated Control Enzyme [2]: 13.6%
- RRSCM ([3]; lymphocyte donor Healthy): 1.68
- RRSCM ([3]; lymphocyte donor Malignant Melanoma): 1.8
- Cathepsin G Activity in Casein-Resorufin Assay as % of Untreated Control Enzyme [4]: 20.0%
